# Assay results as given in paper PMC6650409, “Modeling the binding of diverse ligands within the Ah receptor ligand binding domain” (Scientific Reports, 2019).
# Numbering of substitutions follows the chain as printed. Where two headings read alike, the source gives them in different places.
# Experiments:
# M334A mutant AhR = biological target: T1, M334A mutant AhR (Mus musculus, UniProt P30561, M334A); experiment: [3H]TCDD competitive ligand binding, M334A mutant AhR; conditions: for change of relative binding affinity versus wild-type AhR: M334A substitution, in words; for IC50: Table S6, AhR mutant M334A
# T1 construct: made in house; host or cells: in vitro, Promega TNT Quick rabbit reticulocyte lysate
# T1 sequence (P30561 10-848 M334A): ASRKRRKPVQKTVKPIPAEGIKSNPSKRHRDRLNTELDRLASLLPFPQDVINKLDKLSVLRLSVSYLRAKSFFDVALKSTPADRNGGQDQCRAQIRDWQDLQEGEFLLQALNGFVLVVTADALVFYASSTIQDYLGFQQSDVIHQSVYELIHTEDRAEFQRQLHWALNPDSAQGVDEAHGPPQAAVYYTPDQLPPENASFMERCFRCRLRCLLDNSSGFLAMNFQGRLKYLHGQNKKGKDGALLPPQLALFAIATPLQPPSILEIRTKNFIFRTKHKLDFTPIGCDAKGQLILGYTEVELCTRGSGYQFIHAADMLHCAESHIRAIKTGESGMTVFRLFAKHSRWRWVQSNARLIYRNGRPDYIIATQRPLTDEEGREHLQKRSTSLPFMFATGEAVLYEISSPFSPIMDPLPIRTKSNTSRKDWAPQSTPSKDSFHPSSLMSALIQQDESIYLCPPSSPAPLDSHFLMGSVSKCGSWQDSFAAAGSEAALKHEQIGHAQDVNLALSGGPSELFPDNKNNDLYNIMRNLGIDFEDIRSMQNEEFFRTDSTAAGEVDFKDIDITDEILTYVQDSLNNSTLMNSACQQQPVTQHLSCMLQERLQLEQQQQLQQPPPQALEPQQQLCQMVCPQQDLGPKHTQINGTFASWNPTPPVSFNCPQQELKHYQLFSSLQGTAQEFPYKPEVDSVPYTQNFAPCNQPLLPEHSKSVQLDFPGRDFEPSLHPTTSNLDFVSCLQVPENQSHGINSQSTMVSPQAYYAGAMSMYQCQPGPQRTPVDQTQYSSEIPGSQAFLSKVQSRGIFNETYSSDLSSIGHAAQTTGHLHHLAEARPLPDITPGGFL
# Method: (§1) The mouse AhR (mAhR) and ARNT (mARNT) expression plasmids, mβAhR/pcDNA3 and mβArnt/pcDNA3, have been previously described. Point mutations of mβAhR/pcDNA3 were carried out using the QuikChange Lightning Mutagenesis Kit (Agilent Technologies) and all constructs were verified by sequencing.
# (§2) [^3H]TCDD specific binding to wild-type or mutant mAhRs synthesized in vitro using the Promega TNT Quick coupled transcription/translation rabbit reticulocyte lysate kit (Madison, WI) was carried out as previously described. [^3H]TCDD specific binding was determined by subtracting the amount of [^3H]TCDD bound to unprogrammed lysate (nonspecific binding) from the total amount of [^3H]TCDD binding to lysate containing in vitro expressed AhR. The amount of [^3H]TCDD specific binding remaining in the presence of the indicated competitor chemical was expressed as a percent of the total [^3H]TCDD specific binding. The relative binding affinity (IC50) of each chemical was determined from concentration-dependent competitive inhibition curves obtained using [^3H]TCDD and increasing concentrations of each test chemical and the mean IC50 value was determined using three-parameter non-linear regression.
# C327A mutant AhR = biological target: T2, C327A mutant AhR (Mus musculus, UniProt P30561, C327A); experiment: [3H]TCDD competitive ligand binding, C327A mutant AhR; conditions: for change of relative binding affinity versus wild-type AhR: C327A mutation, in words; for IC50: Table S6, AhR mutant C327A
# T2 construct: made in house; host or cells: in vitro, Promega TNT Quick rabbit reticulocyte lysate
# T2 sequence (P30561 10-848 C327A): T1 sequence (P30561 10-848 M334A) with C318A, A325M
# Method: as §1, §2
smiles,measurement,setting,value
"Cc1ccc2cc3c(ccc4ccccc43)c3c2c1CC3 [3MC, 3-methylcholanthrene]",change of relative binding affinity versus wild-type AhR,M334A mutant AhR,decreased
same,IC50,M334A mutant AhR,34.7 nM
O=c1cc(-c2ccccc2)oc2ccc3ccccc3c12 [BNF],change of relative binding affinity versus wild-type AhR,C327A mutant AhR,significantly decreased
same,IC50,C327A mutant AhR; read-out: IC50,40.5 nM
"c1ccc2c(c1)ccc1cc3c(ccc4ccccc43)cc12 [DBA, dibenz(a,h)anthracene]",change of relative binding affinity versus wild-type AhR,M334A mutant AhR,no significant effect
same,IC50,M334A mutant AhR,7.33 nM
same,change of relative binding affinity versus wild-type AhR,C327A mutant AhR,no significant effect
same,IC50,C327A mutant AhR; read-out: -LogIC50 (converted),14.8 nM
same,IC50,C327A mutant AhR; read-out: IC50,14.6 nM
"O=Cc1c2[nH]c3ccccc3c2cc2[nH]c3ccccc3c12 [FICZ, 6-formylindolo[3,2-b]carbazole]",change of relative binding affinity versus wild-type AhR,C327A mutant AhR,no significant effect
same,IC50,C327A mutant AhR; read-out: IC50,4.32 nM
"Clc1ccc(-c2cc(Cl)c(Cl)c(Cl)c2)cc1Cl [PCB126, 3,3′4,4′5-pentachlorobiphenyl]",change of relative binding affinity versus wild-type AhR,M334A mutant AhR,significantly reduced
same,IC50,M334A mutant AhR,74.1 nM
